Test results published in patent US10059717B2, “Urea compounds containing 3,4-dihydropyrimido[4,5-D]pyrimidin-2(1H)-one skeleton as protein kinase inhibitors” (KOREA INSTITUTE OF SCIENCE AND TECHNOLOGY, priority 2016, dated 2018).

Experiments:
OCI-AML3 (N-Ras Q61L) = assay: Proliferation inhibitory activity, OCI-AML3; assay type: cell-based; settings: Homo sapiens, OCI-AML-3; OCI-AML3 (N-Ras Q61L) cell line; read-out: Proliferation inhibitory efficacy (GI50, μM) OCI-AML3 (N-Ras Q61L)
Protocol: (§1) GI50 values were calculated by measuring the proliferation inhibitory efficacy of the compounds of the present invention on mt-NRAS (G12D) Ba/F3, U937 (wt-NRAS) and OCI-AML3 (mt-NRAS) cell lines.
Accordingly, the compounds of the present invention are particularly effective as a therapeutic agent for acute myelogenous leukemia (AML).

ACK1 = ACK1 (Homo sapiens, UniProt Q07912); assay: ACK1 kinase inhibitory activity; assay type: biochemical; settings: read-out: Kinase inhibitory efficacy, GI50 ACK1
Protocol: (§2) GI50 values were calculated by measuring the inhibitory efficacy of the compounds of the present invention against both GCK and ACK1 kinases.

LATS2 = LATS2 (Homo sapiens, UniProt Q9NRM7); assay: Kinase panel biochemical assay; settings: 1 μM single concentration, read-out: % residual enzyme activity
How it was run: (§3)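 Biochemical kinase panel assay; test compound applied at a single concentration of 1 μM, and kinase inhibitory efficacy expressed as % residual enzyme activity.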

JAK1 = JAK1 (Homo sapiens, UniProt P23458); assay: Kinase panel biochemical assay; settings: 1 μM single concentration, read-out: % residual enzyme activity
How it was run: as §3

FGR = FGR (Homo sapiens, UniProt P09769); assay: Kinase panel biochemical assay; settings: 1 μM single concentration, read-out: % residual enzyme activity
How it was run: as §3

ARAF = ARAF (Homo sapiens, UniProt P10398); assay: Kinase panel biochemical assay; settings: 1 μM single concentration, read-out: % residual enzyme activity
How it was run: as §3

FRK/PTK5 = FRK/PTK5 (Homo sapiens, UniProt P42685); assay: Kinase panel biochemical assay; settings: 1 μM single concentration, read-out: % residual enzyme activity
How it was run: as §3

EPHB4 = EPHB4 (Homo sapiens, UniProt P54760); assay: Kinase panel biochemical assay; settings: 1 μM single concentration, read-out: % residual enzyme activity
How it was run: as §3

IR = IR (Homo sapiens, UniProt P06213); assay: Kinase panel biochemical assay; settings: 1 μM single concentration, read-out: % residual enzyme activity
How it was run: as §3

ERBB4/HER4 = ERBB4/HER4 (Homo sapiens, UniProt Q15303); assay: Kinase panel biochemical assay; settings: 1 μM single concentration, read-out: % residual enzyme activity
How it was run: as §3

TRKC = TRKC (Homo sapiens, UniProt Q16288); assay: Kinase panel biochemical assay; settings: 1 μM single concentration, read-out: % residual enzyme activity
How it was run: as §3

PDGFRb = PDGFRb (Homo sapiens, UniProt P09619); assay: Kinase panel biochemical assay; settings: 1 μM single concentration, read-out: % residual enzyme activity
How it was run: as §3

BRAF = BRAF (Homo sapiens, UniProt P15056); assay: Kinase panel biochemical assay; settings: 1 μM single concentration, read-out: % residual enzyme activity
How it was run: as §3

GCK = target: T1, GCK (Homo sapiens, UniProt Q12851); assay: GCK kinase inhibitory activity; assay type: biochemical; settings: read-out: Kinase inhibitory efficacy, GI50 GCK
T1 sequence (Q12851 1-820): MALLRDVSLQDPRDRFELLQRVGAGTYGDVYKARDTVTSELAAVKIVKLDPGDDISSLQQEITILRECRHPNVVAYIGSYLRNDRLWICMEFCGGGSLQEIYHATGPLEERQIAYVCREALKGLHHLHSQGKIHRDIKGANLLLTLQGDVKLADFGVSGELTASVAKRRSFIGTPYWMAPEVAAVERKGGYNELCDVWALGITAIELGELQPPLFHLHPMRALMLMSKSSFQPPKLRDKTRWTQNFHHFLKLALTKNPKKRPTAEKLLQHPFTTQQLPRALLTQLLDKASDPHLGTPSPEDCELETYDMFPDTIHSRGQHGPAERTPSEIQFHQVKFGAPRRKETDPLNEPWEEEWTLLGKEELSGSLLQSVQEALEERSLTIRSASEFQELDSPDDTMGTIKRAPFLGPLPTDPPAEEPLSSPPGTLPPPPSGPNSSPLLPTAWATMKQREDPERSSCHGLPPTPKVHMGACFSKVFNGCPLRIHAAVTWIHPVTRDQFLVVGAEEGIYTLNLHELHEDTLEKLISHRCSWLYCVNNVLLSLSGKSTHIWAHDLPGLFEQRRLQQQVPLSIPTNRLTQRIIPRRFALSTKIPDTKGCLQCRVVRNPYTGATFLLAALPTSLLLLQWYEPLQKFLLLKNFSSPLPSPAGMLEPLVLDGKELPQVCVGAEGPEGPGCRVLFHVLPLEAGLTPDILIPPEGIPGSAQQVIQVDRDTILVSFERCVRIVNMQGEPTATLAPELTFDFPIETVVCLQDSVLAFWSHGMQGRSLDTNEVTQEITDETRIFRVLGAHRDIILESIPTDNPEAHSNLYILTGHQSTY
Protocol: as §2

U937 (N-Ras WT) = assay: Proliferation inhibitory activity, U937; assay type: cell-based; settings: Homo sapiens, U-937; U937 (N-Ras WT) cell line; read-out: Proliferation inhibitory efficacy (GI50, μM) U937 (N-Ras WT)
Protocol: as §1

Sequence of IR (P06213 28-1382): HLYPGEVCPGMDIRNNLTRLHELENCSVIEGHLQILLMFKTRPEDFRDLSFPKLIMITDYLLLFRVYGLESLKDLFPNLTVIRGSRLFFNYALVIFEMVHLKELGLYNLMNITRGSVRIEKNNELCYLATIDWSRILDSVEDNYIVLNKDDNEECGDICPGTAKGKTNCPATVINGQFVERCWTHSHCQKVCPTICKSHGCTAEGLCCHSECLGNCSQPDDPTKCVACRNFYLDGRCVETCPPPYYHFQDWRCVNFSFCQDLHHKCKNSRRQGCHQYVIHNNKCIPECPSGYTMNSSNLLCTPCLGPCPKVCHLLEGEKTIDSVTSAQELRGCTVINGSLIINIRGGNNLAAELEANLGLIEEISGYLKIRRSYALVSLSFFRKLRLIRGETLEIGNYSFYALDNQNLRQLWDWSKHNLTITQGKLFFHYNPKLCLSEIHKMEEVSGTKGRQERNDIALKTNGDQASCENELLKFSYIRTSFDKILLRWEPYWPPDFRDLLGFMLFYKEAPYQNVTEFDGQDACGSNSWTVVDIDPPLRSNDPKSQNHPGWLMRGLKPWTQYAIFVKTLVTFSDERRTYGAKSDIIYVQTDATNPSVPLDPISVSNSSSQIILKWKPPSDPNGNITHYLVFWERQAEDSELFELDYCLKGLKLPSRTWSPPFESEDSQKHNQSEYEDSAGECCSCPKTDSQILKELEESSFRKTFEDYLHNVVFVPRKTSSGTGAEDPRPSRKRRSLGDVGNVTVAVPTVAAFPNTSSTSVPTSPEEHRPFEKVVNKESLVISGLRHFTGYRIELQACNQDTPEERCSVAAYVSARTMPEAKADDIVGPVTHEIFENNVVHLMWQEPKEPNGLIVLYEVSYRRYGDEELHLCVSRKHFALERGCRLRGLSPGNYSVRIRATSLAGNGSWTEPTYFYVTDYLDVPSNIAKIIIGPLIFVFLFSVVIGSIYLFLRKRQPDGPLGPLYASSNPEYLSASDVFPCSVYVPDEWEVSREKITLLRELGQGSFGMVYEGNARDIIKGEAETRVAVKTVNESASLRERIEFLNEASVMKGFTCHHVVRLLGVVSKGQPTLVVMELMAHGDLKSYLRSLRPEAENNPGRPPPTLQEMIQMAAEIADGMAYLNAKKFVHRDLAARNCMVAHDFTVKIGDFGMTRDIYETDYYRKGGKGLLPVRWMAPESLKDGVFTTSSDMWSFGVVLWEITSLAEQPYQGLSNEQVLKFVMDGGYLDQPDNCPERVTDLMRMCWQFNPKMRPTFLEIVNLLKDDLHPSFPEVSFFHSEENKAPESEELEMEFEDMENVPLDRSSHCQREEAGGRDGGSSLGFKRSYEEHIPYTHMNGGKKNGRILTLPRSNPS
Sequence of LATS2 (Q9NRM7 whole entry, species assumed): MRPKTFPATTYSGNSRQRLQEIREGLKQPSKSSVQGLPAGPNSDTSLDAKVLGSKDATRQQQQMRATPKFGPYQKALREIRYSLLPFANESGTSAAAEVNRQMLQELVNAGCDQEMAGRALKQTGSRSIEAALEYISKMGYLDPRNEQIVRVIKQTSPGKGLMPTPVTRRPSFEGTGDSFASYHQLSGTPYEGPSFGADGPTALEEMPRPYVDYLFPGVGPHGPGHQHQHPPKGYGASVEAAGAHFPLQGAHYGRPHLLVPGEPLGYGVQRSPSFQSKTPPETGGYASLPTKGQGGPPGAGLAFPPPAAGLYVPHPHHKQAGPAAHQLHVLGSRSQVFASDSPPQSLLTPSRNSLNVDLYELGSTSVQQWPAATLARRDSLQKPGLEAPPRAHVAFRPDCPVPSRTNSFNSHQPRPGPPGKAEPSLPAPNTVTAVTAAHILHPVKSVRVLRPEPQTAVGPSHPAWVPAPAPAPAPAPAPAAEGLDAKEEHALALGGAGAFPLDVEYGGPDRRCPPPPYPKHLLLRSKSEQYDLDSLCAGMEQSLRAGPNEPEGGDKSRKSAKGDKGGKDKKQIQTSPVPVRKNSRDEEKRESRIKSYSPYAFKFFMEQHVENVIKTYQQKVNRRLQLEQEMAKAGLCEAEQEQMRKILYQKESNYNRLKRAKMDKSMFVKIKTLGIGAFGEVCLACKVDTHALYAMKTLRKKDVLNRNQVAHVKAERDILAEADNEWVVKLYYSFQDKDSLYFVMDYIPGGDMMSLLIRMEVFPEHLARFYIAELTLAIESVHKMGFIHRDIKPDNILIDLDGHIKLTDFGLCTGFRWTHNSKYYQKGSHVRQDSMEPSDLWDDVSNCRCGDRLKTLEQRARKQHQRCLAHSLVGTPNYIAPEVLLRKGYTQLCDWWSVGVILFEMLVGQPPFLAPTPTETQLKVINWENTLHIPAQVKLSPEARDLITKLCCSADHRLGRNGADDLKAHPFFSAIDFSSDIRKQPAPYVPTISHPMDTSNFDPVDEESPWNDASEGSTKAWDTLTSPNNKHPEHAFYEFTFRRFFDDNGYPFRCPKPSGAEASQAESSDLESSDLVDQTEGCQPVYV
Sequence of JAK1 (P23458 whole entry): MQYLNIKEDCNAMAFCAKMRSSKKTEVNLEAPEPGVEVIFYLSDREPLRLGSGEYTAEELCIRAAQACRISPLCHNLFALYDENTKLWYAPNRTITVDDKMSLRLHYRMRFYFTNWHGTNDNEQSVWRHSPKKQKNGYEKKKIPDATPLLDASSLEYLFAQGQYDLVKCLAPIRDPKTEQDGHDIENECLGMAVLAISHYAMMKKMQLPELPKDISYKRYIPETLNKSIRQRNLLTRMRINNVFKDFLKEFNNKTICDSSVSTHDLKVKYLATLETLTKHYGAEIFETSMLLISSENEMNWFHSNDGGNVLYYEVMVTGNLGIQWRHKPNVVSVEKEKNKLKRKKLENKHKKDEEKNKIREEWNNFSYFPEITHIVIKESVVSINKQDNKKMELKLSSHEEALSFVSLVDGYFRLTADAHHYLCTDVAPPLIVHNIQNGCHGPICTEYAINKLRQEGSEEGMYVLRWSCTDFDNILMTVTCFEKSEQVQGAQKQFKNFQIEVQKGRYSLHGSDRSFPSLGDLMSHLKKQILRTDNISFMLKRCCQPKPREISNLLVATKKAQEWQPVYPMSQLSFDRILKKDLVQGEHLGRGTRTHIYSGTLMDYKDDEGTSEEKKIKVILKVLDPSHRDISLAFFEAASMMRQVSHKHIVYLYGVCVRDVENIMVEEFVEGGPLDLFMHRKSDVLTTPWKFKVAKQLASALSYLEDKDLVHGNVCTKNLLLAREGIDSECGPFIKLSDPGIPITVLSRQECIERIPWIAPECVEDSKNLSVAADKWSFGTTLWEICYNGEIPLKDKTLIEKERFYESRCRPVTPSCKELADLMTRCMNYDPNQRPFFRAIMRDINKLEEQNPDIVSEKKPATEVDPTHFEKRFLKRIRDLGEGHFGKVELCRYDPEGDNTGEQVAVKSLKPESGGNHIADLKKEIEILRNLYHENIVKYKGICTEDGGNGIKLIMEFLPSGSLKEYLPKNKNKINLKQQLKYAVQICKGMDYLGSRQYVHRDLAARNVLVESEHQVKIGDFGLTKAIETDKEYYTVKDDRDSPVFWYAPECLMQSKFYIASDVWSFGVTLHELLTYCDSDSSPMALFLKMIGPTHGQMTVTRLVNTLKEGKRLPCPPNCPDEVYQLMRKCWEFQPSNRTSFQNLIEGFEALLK
Sequence of BRAF (P15056 whole entry): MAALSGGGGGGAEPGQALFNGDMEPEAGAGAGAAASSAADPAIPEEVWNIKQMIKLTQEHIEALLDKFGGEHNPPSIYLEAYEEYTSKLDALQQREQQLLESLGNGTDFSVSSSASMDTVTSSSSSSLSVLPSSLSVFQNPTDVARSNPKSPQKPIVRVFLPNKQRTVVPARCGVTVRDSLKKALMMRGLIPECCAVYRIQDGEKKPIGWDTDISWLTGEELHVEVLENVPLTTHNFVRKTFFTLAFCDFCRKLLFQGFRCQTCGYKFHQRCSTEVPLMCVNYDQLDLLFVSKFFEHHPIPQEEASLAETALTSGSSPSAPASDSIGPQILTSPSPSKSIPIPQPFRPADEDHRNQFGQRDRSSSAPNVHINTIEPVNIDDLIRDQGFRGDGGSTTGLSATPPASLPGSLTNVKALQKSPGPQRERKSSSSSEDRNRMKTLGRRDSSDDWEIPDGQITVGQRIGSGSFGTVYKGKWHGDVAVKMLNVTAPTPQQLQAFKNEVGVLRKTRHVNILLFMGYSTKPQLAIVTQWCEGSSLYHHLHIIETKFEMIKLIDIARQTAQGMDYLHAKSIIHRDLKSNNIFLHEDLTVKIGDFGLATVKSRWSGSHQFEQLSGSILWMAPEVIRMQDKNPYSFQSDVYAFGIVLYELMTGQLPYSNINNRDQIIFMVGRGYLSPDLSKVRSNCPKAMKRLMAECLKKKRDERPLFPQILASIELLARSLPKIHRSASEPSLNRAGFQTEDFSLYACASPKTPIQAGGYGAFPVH
Sequence of ARAF (P10398 whole entry): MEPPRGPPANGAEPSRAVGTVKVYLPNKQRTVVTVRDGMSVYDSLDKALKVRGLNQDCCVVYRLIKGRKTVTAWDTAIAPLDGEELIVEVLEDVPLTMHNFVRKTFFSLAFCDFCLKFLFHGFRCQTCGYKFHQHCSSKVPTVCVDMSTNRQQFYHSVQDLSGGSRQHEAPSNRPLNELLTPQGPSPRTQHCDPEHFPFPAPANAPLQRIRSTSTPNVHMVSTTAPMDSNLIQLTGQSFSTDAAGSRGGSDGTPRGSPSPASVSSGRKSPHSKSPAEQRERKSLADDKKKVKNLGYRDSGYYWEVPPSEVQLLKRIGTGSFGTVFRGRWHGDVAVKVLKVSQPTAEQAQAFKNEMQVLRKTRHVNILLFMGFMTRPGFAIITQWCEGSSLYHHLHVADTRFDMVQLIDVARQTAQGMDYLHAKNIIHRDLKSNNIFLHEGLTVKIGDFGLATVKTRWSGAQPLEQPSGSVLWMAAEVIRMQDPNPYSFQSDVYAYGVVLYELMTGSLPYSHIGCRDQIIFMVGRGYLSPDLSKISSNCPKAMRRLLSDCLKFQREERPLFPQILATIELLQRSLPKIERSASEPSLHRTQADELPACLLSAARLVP

GI50 (OCI-AML3 (N-Ras Q61L)): < 0.5 µM | GI50 (ACK1): < 30 nM | remaining activity at 1 µM (LATS2): ≤ 30% | remaining activity at 1 µM (JAK1): ≤ 30% | remaining activity at 1 µM (FGR): ≤ 30% | remaining activity at 1 µM (ARAF): ≤ 30% | remaining activity at 1 µM (FRK/PTK5): ≤ 30% | remaining activity at 1 µM (EPHB4): ≤ 30% | remaining activity at 1 µM (IR): ≤ 30% | remaining activity at 1 µM (ERBB4/HER4): ≤ 30% | remaining activity at 1 µM (TRKC): ≤ 30% | remaining activity at 1 µM (PDGFRb): ≤ 30% | remaining activity at 1 µM (BRAF): ≤ 30% | GI50 (GCK): < 30 nM | GI50 (U937 (N-Ras WT)): ≥ 5 µM
SMILES: CCN1CCN(C(=O)c2ccc(Nc3ncc4c(n3)N(C)C(=O)N(c3cc(NC(=O)Nc5ccccc5OC)ccc3C)C4)cn2)CC1 [Compound No. 14, 1-(3-(7-((6-(4-ethylpiperazin-1-carbonyl)pyridin-3-yl)amino)-1-methyl-2-oxo-1,4-dihydropyrimido[4,5-d]pyrimidin-3(2H)-yl)-4-methylphenyl)-3-(2-methoxyphenyl)urea]
